The values that follow come from ChEMBL document CHEMBL4765474, “Discovery of a "Gatekeeper" Antagonist that Blocks Entry Pathway to Retinoid X Receptors (RXRs) without Allosteric Ligand Inhibition in Permissive RXR Heterodimers” (J Med Chem, 2021).

Experiment [1] concerns the target T1, Retinoic acid receptor RXR-alpha (Homo sapiens, UniProt P19793).
T1 sequence (P19793 whole entry): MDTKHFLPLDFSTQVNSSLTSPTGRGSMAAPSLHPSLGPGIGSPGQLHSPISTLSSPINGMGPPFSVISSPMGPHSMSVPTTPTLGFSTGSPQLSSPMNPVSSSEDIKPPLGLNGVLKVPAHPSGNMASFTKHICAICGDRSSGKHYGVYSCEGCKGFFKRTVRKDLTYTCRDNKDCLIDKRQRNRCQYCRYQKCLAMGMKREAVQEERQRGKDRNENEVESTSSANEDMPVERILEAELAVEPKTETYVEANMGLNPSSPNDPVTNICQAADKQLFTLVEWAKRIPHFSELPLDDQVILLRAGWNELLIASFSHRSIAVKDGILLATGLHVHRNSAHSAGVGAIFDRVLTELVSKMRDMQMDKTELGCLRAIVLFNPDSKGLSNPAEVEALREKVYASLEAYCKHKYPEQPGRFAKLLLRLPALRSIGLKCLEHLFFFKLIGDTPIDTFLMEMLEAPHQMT
The experiment can be described thus: Displacement of [3H]-9-cis retinoic acid from recombinant human RXR-alpha LBD by liquid scintillation counting based competitive ligand binding assay. In general terms: Displacement assays read how much labelled ligand stays bound in the presence of the test substance.

Experiment [2] deals with T1, Retinoic acid receptor RXR-alpha. Description: Binding affinity to human RXR-alpha LBD incubated for 2 hrs by tryptophan fluorescence quenching assay.
The target is the same in experiment [3]. The experiment can be described thus: Competitive antagonist activity at human RXRA/RXRA expressed in African green monkey COS7 cells assessed as reduction in bexarotene-induced receptor activation by RXRE-dependent luciferase reporter gene assay. Type of experiment: cell-based. To be noted: read-out: pA2 (converted). (In general: A reporter such as luciferase makes a cellular process visible.)

For a further experiment, the target named is RXR alpha/PPAR gamma (Homo sapiens, UniProt P19793). Description: Competitive antagonist activity at human PPAR-gamma/RXRA expressed in African green monkey COS7 cells assessed as reduction in bexarotene-induced receptor activation by RXRE-dependent luciferase reporter gene assay. Type of experiment: cell-based. To be noted: read-out: pA2 (converted).
Chain of RXR alpha/PPAR gamma (P37231 whole entry, one chain of several): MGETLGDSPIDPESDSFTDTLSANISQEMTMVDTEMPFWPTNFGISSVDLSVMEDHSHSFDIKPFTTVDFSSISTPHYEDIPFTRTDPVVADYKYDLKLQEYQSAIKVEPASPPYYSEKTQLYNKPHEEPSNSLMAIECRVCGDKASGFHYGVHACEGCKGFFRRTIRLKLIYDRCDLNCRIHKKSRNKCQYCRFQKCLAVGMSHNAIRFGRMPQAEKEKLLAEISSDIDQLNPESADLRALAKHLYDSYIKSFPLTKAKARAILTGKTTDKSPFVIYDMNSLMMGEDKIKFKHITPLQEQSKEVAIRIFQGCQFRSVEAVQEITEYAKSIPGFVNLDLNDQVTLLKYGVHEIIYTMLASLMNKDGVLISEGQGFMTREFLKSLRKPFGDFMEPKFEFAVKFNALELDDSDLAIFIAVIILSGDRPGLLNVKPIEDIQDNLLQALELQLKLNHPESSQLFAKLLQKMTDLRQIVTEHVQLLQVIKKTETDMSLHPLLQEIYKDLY

Experiment [4] has as its target T2, Retinoic acid receptor RXR-alpha/oxysterols receptor LXR-alpha (Homo sapiens, UniProt P19793).
T2 sequence (P19793 whole entry): T1 sequence (P19793 whole entry)
T2 sequence (Q13133 whole entry): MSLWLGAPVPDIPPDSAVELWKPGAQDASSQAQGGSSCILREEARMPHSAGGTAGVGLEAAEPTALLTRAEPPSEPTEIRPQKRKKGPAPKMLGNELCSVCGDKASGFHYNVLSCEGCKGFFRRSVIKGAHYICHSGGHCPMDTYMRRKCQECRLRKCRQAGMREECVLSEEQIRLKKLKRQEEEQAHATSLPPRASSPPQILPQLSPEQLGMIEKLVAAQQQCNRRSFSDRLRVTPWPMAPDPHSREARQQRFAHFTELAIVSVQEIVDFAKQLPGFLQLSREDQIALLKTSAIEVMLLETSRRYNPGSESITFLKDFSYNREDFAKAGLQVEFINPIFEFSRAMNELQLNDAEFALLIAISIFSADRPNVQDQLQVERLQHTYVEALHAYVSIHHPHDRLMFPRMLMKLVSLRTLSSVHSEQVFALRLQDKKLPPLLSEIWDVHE
Description: Competitive antagonist activity at human LXR-alpha/RXRA expressed in African green monkey COS7 cells assessed as reduction in bexarotene-induced receptor activation by RXRE-dependent luciferase reporter gene assay. It counts as cell-based. To be noted: read-out: pA2 (converted).

Experiment [5] addresses T1, Retinoic acid receptor RXR-alpha. Description: Binding affinity to human RXR-alpha by ITC analysis. In general terms: ITC needs no label: the signal is the heat of the interaction.

As for `CCCCCCOc1cc2c(cc1N(C)c1ncc(C(=O)O)cn1)C(C)(C)CCC2(C)C`, the Ki (in general, a measure of affinity in units of concentration, obtained from inhibition or displacement) in experiment [1] worked out at 1340 nM. For the same compound, the Kd (usually the free concentration of one partner at which half of the binding sites on the other are occupied at equilibrium, for simple one-to-one binding) in experiment [2] came to 260 nM; in experiment [5], 1350 nM. Moreover, the Kb in experiment [3] was 63.1 nM; at RXR alpha/PPAR gamma, 10 nM; in experiment [4], 302 nM.
